Results taken from ChEMBL document CHEMBL3286288, “Diterpenes from the endangered goldenrod Solidago shortii” (2014).
Active and inactive are the calls of the source. The calls are words filed in the database; no cut-off is given here.

What was measured:
Staphylococcus aureus [1] = assay: Antibacterial activity against methicillin-resistant Staphylococcus aureus 108 assessed as growth inhibition up to 16 ug/ml after 24 hrs by broth microdilution method; format: functional, organism-based
Staphylococcus aureus [2] = assay: Antibacterial activity against methicillin-susceptible Staphylococcus aureus ATCC 25923 assessed as growth inhibition at 8 ug/ml after 24 hrs by broth microdilution method relative to control; format: functional; conditions: ATCC 25923, 24 h, read-out: GI
NCI-H460 = assay: Growth inhibition of human NCI-H460 cells after 72 hrs at 10 uM; format: functional, cell-based
Staphylococcus aureus [3] = assay: Antibacterial activity against methicillin-susceptible Staphylococcus aureus ATCC 25923 assessed as growth inhibition at 64 ug/ml after 24 hrs by broth microdilution method; format: functional, organism-based

SMILES | growth inhibition (GI) (Staphylococcus aureus [1]) | inhibition of growth at 8 µg/mL (Staphylococcus aureus [2]) | growth inhibition (GI) (NCI-H460) | growth inhibition (GI) (Staphylococcus aureus [3])
C[C@@H]1C[C@H]2C(=O)C(C)(C)[C@@H](O)CC[C@]2(O)[C@]1(C)CCC1=CC(=O)OC1 | inactive | 66% | inactive | –
C/C=C(/C)C(=O)O[C@H]1C[C@]2(C)[C@@H](CC[C@@H](OC(=O)C(F)(F)F)[C@]2(C)O)[C@](C)(CCC2=CC(=O)OC2)[C@@H]1C | inactive | – | inactive | –
C/C=C(/C)C(=O)O[C@H]1C[C@]2(C)[C@@H](CC[C@@H](O)[C@]2(C)O)[C@](C)(CCC2=CC(=O)OC2)[C@@H]1C | inactive | – | inactive | –
C/C=C(/C)C(=O)O[C@H]1C[C@]2(C)[C@@H](CC[C@H]3O[C@]32C)[C@](C)(CCC2=CC(=O)OC2)[C@@H]1C | inactive | – | inactive | inactive
C/C=C(/C)C(=O)O[C@H]1C[C@]2(C)[C@@H](CC[C@@H](NC(C)=O)[C@]2(C)O)[C@](C)(CCC2=CC(=O)OC2)[C@@H]1C | inactive | – | inactive | –
C[C@@H]1CC[C@]2(O)[C@H](C[C@H](O)C2(C)C)C(=O)[C@]1(C)CCC1=CC(=O)OC1 | inactive | 56% | inactive | –
